Legend:
Assay in all cases: relative viability (nuclei count vs DMSO), 5 days (fraction); higher = more cells survive
LC-2-ad = system: LC-2-ad
In short: (§1)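 Lung cancer cell lines were pin-tool dosed in 1536-well plates on the day after seeding, with either a lone drug or a fixed anchor-drug dose plus five library-drug doses (not always all listed) in √10 steps. Nuclei were counted on 4× images after 5 days. Relative viability is the ratio of treated-well to vehicle-well nuclei counts, with each value a median of duplicate plates.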

NCI-H2342 = system: NCI-H2342
In short: as §1

NCI-H2228 = system: NCI-H2228
In short: as §1

NCI-H1915 = system: NCI-H1915
In short: as §1

SK-LU-1 = system: SK-LU-1
In short: as §1

HCC-15 = system: HCC-15
In short: as §1

LXF-289 = system: LXF-289
In short: as §1

SW 1573 = system: SW 1573
In short: as §1

NCI-H647 = system: NCI-H647
In short: as §1

LOU-NH91 = system: LOU-NH91
In short: as §1

NCI-H522 = system: NCI-H522
In short: as §1

RERF-LC-KJ = system: RERF-LC-KJ
In short: as §1

PC-3 [JPC-3] = system: PC-3 [JPC-3]
In short: as §1

NCI-H1734 = system: NCI-H1734
In short: as §1

NCI-H1975 = system: NCI-H1975
In short: as §1

NCI-H1792 = system: NCI-H1792
In short: as §1

HOP-62 = system: HOP-62
In short: as §1

NCI-H358 = system: NCI-H358
In short: as §1

NCI-H2347 = system: NCI-H2347
In short: as §1

NCI-H460 = system: NCI-H460
In short: as §1

HCC-78 = system: HCC-78
In short: as §1

NCI-H1755 = system: NCI-H1755
In short: as §1

NCI-H2126 = system: NCI-H2126
In short: as §1

A-427 = system: A-427
In short: as §1

Work on `COc1cc(N2CCC(C(N)=O)CC2)ccc1Nc1nc(N)c(Cl)c(Nc2ccccc2S(=O)(=O)C(C)C)n1` [HG-5-88-01] + CC(=O)c1c(C)c2cnc(Nc3ccc(N4CCNCC4)cn3)nc2n(C2CCCC2)c1=O [Palbociclib] (partner 0.5 µM) yielded a relative viability (LC-2-ad; first compound 0.04 µM) of 0.471, a relative viability (LC-2-ad; first compound 0.1265 µM) of 0.431 and a relative viability (LC-2-ad; first compound 0.4 µM) of 0.449. The relative viability (LC-2-ad; first compound 1.265 µM) was 0.474, the relative viability (LC-2-ad; first compound 4 µM) was 0.516 and the relative viability (NCI-H2342; first compound 0.04 µM) was 0.557. The relative viability (NCI-H2342; first compound 0.1265 µM) was 0.54, the relative viability (NCI-H2342; first compound 0.4 µM) was 0.471 and the relative viability (NCI-H2342; first compound 4 µM) was 0.539. The relative viability (NCI-H2228; first compound 0.04 µM) was 0.388, the relative viability (NCI-H2228; first compound 0.1265 µM) was 0.388 and the relative viability (NCI-H2228; first compound 0.4 µM) was 0.319. The relative viability (NCI-H2228; first compound 1.265 µM) was 0.247, the relative viability (NCI-H2228; first compound 4 µM) was 0.231 and the relative viability (NCI-H1915; first compound 0.04 µM) was 0.592. It also gave a relative viability (NCI-H1915; first compound 0.1265 µM) of 0.559, a relative viability (NCI-H1915; first compound 0.4 µM) of 0.588 and a relative viability (NCI-H1915; first compound 1.265 µM) of 0.565. It also gave a relative viability (NCI-H1915; first compound 4 µM) of 0.502, a relative viability (SK-LU-1; first compound 0.04 µM) of 0.363 and a relative viability (SK-LU-1; first compound 0.1265 µM) of 0.422. The relative viability (SK-LU-1; first compound 0.4 µM) was 0.505, the relative viability (SK-LU-1; first compound 1.265 µM) was 0.329 and the relative viability (SK-LU-1; first compound 4 µM) was 0.332. The relative viability (HCC-15; first compound 0.04 µM) was 0.772, the relative viability (HCC-15; first compound 0.1265 µM) was 0.792 and the relative viability (HCC-15; first compound 0.4 µM) was 0.643. The relative viability (HCC-15; first compound 1.265 µM) was 0.724, the relative viability (HCC-15; first compound 4 µM) was 0.432 and the relative viability (LXF-289; first compound 0.04 µM) was 0.583. For the same compound, the relative viability (LXF-289; first compound 0.1265 µM) was 0.628, the relative viability (LXF-289; first compound 0.4 µM) was 0.572 and the relative viability (LXF-289; first compound 1.265 µM) was 0.59. For the same compound, the relative viability (LXF-289; first compound 4 µM) was 0.636, the relative viability (SW 1573; first compound 0.04 µM) was 0.412 and the relative viability (SW 1573; first compound 0.1265 µM) was 0.369. It also gave a relative viability (SW 1573; first compound 0.4 µM) of 0.337, a relative viability (SW 1573; first compound 1.265 µM) of 0.257 and a relative viability (SW 1573; first compound 4 µM) of 0.277. It also gave a relative viability (NCI-H647; first compound 0.04 µM) of 0.388, a relative viability (NCI-H647; first compound 0.1265 µM) of 0.423 and a relative viability (NCI-H647; first compound 1.265 µM) of 0.444. For the same compound, the relative viability (NCI-H647; first compound 4 µM) was 0.494, the relative viability (LOU-NH91; first compound 0.04 µM) was 0.533 and the relative viability (LOU-NH91; first compound 0.1265 µM) was 0.491. It also gave a relative viability (LOU-NH91; first compound 0.4 µM) of 0.585, a relative viability (LOU-NH91; first compound 1.265 µM) of 0.509 and a relative viability (LOU-NH91; first compound 4 µM) of 0.55. It also gave a relative viability (NCI-H522; first compound 0.04 µM) of 1.06, a relative viability (NCI-H522; first compound 0.1265 µM) of 1.03 and a relative viability (NCI-H522; first compound 0.4 µM) of 1.01. For the same compound, the relative viability (NCI-H522; first compound 1.265 µM) was 0.829, the relative viability (NCI-H522; first compound 4 µM) was 0.851 and the relative viability (RERF-LC-KJ; first compound 0.04 µM) was 1.07. The relative viability (RERF-LC-KJ; first compound 0.1265 µM) was 1.14, the relative viability (RERF-LC-KJ; first compound 0.4 µM) was 1.08 and the relative viability (RERF-LC-KJ; first compound 1.265 µM) was 0.908. The relative viability (RERF-LC-KJ; first compound 4 µM) was 0.656, the relative viability (PC-3 [JPC-3]; first compound 0.04 µM) was 0.485 and the relative viability (PC-3 [JPC-3]; first compound 0.1265 µM) was 0.586. It also gave a relative viability (PC-3 [JPC-3]; first compound 0.4 µM) of 0.512, a relative viability (PC-3 [JPC-3]; first compound 1.265 µM) of 0.426 and a relative viability (PC-3 [JPC-3]; first compound 4 µM) of 0.422. For the same compound, the relative viability (NCI-H1734; first compound 0.04 µM) was 0.367, the relative viability (NCI-H1734; first compound 0.1265 µM) was 0.301 and the relative viability (NCI-H1734; first compound 0.4 µM) was 0.326. For the same compound, the relative viability (NCI-H1734; first compound 1.265 µM) was 0.33, the relative viability (NCI-H1734; first compound 4 µM) was 0.312 and the relative viability (NCI-H1975; first compound 0.04 µM) was 0.597. For the same compound, the relative viability (NCI-H1975; first compound 0.1265 µM) was 0.643, the relative viability (NCI-H1975; first compound 0.4 µM) was 0.464 and the relative viability (NCI-H1975; first compound 1.265 µM) was 0.538. For the same compound, the relative viability (NCI-H1975; first compound 4 µM) was 0.425, the relative viability (NCI-H1792; first compound 0.04 µM) was 0.74 and the relative viability (NCI-H1792; first compound 0.1265 µM) was 0.675. It also gave a relative viability (NCI-H1792; first compound 0.4 µM) of 0.623, a relative viability (NCI-H1792; first compound 4 µM) of 0.614 and a relative viability (HOP-62; first compound 0.04 µM) of 0.428. The relative viability (HOP-62; first compound 0.1265 µM) was 0.54, the relative viability (HOP-62; first compound 0.4 µM) was 0.456 and the relative viability (HOP-62; first compound 1.265 µM) was 0.501. For the same compound, the relative viability (HOP-62; first compound 4 µM) was 0.608, the relative viability (NCI-H358; first compound 0.04 µM) was 0.139 and the relative viability (NCI-H358; first compound 0.1265 µM) was 0.131. For the same compound, the relative viability (NCI-H358; first compound 0.4 µM) was 0.118, the relative viability (NCI-H358; first compound 1.265 µM) was 0.0962 and the relative viability (NCI-H358; first compound 4 µM) was 0.0785. It also gave a relative viability (NCI-H2347; first compound 0.04 µM) of 0.439, a relative viability (NCI-H2347; first compound 0.1265 µM) of 0.417 and a relative viability (NCI-H2347; first compound 0.4 µM) of 0.467. The relative viability (NCI-H2347; first compound 1.265 µM) was 0.431, the relative viability (NCI-H2347; first compound 4 µM) was 0.425 and the relative viability (NCI-H460; first compound 0.04 µM) was 0.171. It also gave a relative viability (NCI-H460; first compound 0.1265 µM) of 0.155, a relative viability (NCI-H460; first compound 0.4 µM) of 0.0931 and a relative viability (NCI-H460; first compound 1.265 µM) of 0.247. For the same compound, the relative viability (NCI-H460; first compound 4 µM) was 0.274, the relative viability (HCC-78; first compound 0.04 µM) was 0.465 and the relative viability (HCC-78; first compound 0.1265 µM) was 0.424. The relative viability (HCC-78; first compound 0.4 µM) was 0.497, the relative viability (HCC-78; first compound 1.265 µM) was 0.421 and the relative viability (HCC-78; first compound 4 µM) was 0.44. For the same compound, the relative viability (NCI-H1755; first compound 0.04 µM) was 0.42, the relative viability (NCI-H1755; first compound 0.1265 µM) was 0.494 and the relative viability (NCI-H1755; first compound 0.4 µM) was 0.485. The relative viability (NCI-H1755; first compound 1.265 µM) was 0.419, the relative viability (NCI-H1755; first compound 4 µM) was 0.455 and the relative viability (NCI-H2126; first compound 0.04 µM) was 0.363. For the same compound, the relative viability (NCI-H2126; first compound 0.1265 µM) was 0.352, the relative viability (NCI-H2126; first compound 0.4 µM) was 0.378 and the relative viability (NCI-H2126; first compound 1.265 µM) was 0.332. It also gave a relative viability (NCI-H2126; first compound 4 µM) of 0.372, a relative viability (A-427; first compound 0.04 µM) of 0.536 and a relative viability (A-427; first compound 0.1265 µM) of 0.541. The relative viability (A-427; first compound 0.4 µM) was 0.541, the relative viability (A-427; first compound 1.265 µM) was 0.517 and the relative viability (A-427; first compound 4 µM) was 0.463.
